According to ChEMBL document CHEMBL1201862, “PubChem BioAssay data set” (2004):
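Briefly, cells in 96-well plates were exposed to five compound concentrations for 48 h, and endpoints were estimated by linear interpolation. GI50 = concentration required for 50% inhibition of growth.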 Calls of active or inactive are those of the source. Rule as the data show it: active = GI50 up to about 1.1 µM and inactive = higher.

Legend:
Assay in all cases: DTP human tumour cell line panel, 48 h
UACC-257 = tested on: UACC-257
SK-MEL-2 = tested on: SK-MEL-2
OVCAR-4 = tested on: OVCAR-4
COLO 205 = tested on: COLO 205
NCI/ADR-RES = tested on: NCI/ADR-RES
CCRF-CEM = tested on: CCRF-CEM
MCF7 = tested on: MCF7
K562 = tested on: K562
OVCAR-5 = tested on: OVCAR-5
SN12C = tested on: SN12C
RPMI-8226 = tested on: RPMI-8226
KM12 = tested on: KM12
SW-620 = tested on: SW-620
SR = tested on: SR
HOP-92 = tested on: HOP-92
OVCAR-3 = tested on: OVCAR-3
HCT-116 = tested on: HCT-116
SF-539 = tested on: SF-539
NCI-H226 = tested on: NCI-H226

| SMILES | GI50 (UACC-257) | GI50 (SK-MEL-2) | GI50 (OVCAR-4) | GI50 (COLO 205) | GI50 (NCI/ADR-RES) | GI50 (CCRF-CEM) | GI50 (MCF7) | GI50 (K562) | GI50 (OVCAR-5) | GI50 (SN12C) | GI50 (RPMI-8226) | GI50 (KM12) | GI50 (SW-620) | GI50 (SR) | GI50 (HOP-92) | GI50 (OVCAR-3) | GI50 (HCT-116) | GI50 (SF-539) | GI50 (NCI-H226) |
| --- | --- | --- | --- | --- | --- | --- | --- | --- | --- | --- | --- | --- | --- | --- | --- | --- | --- | --- | --- |
| COc1cc2c3c(n(C)c(=O)c2cc1OC)-c1cc2c(cc1/C3=C\CCCCCBr)OCO2 | 25.1 µM (inactive) | 32.2 µM (inactive) | 26.9 µM (inactive) | 47.3 µM (inactive) | 32.4 µM (inactive) | 2.38 µM (inactive) | 3.5 µM (inactive) | 6.3 µM (inactive) | 67.9 µM (inactive) | 5.96 µM (inactive) | 5.41 µM (inactive) | 31.9 µM (inactive) | 8.32 µM (inactive) | 0.43 µM (active) | 4.52 µM (inactive) | – | – | – | – |
| OCCN(C1=NCCN1)/[N+](=C/c1ccc(Cl)cc1)[CH-]c1ccc(Cl)cc1 | > 100 µM (inactive) | 27.1 µM (inactive) | > 100 µM (inactive) | 62.4 µM (inactive) | > 100 µM (inactive) | 61.8 µM (inactive) | > 100 µM (inactive) | 41.7 µM (inactive) | > 100 µM (inactive) | > 100 µM (inactive) | – | > 100 µM (inactive) | > 100 µM (inactive) | 99.1 µM (inactive) | – | > 100 µM (inactive) | 95.5 µM (inactive) | > 100 µM (inactive) | > 100 µM (inactive) |
| CC(C)=NNC(=S)NC12CC3CC(CC(C3)C1)C2 | > 100 µM (inactive) | > 100 µM (inactive) | > 100 µM (inactive) | > 100 µM (inactive) | – | > 100 µM (inactive) | – | > 100 µM (inactive) | > 100 µM (inactive) | > 100 µM (inactive) | > 100 µM (inactive) | > 100 µM (inactive) | > 100 µM (inactive) | > 100 µM (inactive) | > 100 µM (inactive) | > 100 µM (inactive) | > 100 µM (inactive) | > 100 µM (inactive) | > 100 µM (inactive) |
| CSc1cnc2ccccc2c1Sc1cn(C)c2ccccc2c1=O | 59.4 µM (inactive) | 21.8 µM (inactive) | 34.8 µM (inactive) | 17 µM (inactive) | – | 19.7 µM (inactive) | – | 7.82 µM (inactive) | > 100 µM (inactive) | 28.8 µM (inactive) | 17.9 µM (inactive) | 25.8 µM (inactive) | 70.6 µM (inactive) | 12.6 µM (inactive) | 12 µM (inactive) | 28.7 µM (inactive) | 10.2 µM (inactive) | 29 µM (inactive) | 26.1 µM (inactive) |
| Cn1c2c(c3ccccc31)CCN(CCN1CCN(c3ccccc3)CC1)C2=O | – | – | – | > 100 µM (inactive) | – | > 100 µM (inactive) | – | > 100 µM (inactive) | – | > 100 µM (inactive) | > 100 µM (inactive) | – | > 100 µM (inactive) | – | 31.2 µM (inactive) | – | 58.1 µM (inactive) | 41.3 µM (inactive) | – |
| C=C1CC(C/C=C(\C)CC2CC(=C)C(=O)O2)OC1=O (stereo not given) | > 100 µM (inactive) | > 100 µM (inactive) | > 100 µM (inactive) | > 100 µM (inactive) | – | > 100 µM (inactive) | – | > 100 µM (inactive) | > 100 µM (inactive) | > 100 µM (inactive) | – | > 100 µM (inactive) | > 100 µM (inactive) | > 100 µM (inactive) | > 100 µM (inactive) | > 100 µM (inactive) | > 100 µM (inactive) | > 100 µM (inactive) | – |
| Cc1ccc(S(=O)OCC23CC4CC(CC(C4)C2)C3)cc1 (stereo not given) | > 100 µM (inactive) | – | > 100 µM (inactive) | > 100 µM (inactive) | – | – | – | > 100 µM (inactive) | > 100 µM (inactive) | > 100 µM (inactive) | > 100 µM (inactive) | > 100 µM (inactive) | > 100 µM (inactive) | > 100 µM (inactive) | > 100 µM (inactive) | > 100 µM (inactive) | > 100 µM (inactive) | > 100 µM (inactive) | > 100 µM (inactive) |
| c1ccc(SC2CCSc3ccccc3C2Sc2ccccc2)cc1 (stereo not given) | 27.9 µM (inactive) | – | > 100 µM (inactive) | > 10 µM (inactive) | – | > 100 µM (inactive) | – | > 100 µM (inactive) | – | > 100 µM (inactive) | 96.4 µM (inactive) | 56.1 µM (inactive) | > 100 µM (inactive) | – | 18.8 µM (inactive) | 37 µM (inactive) | 9.75 µM (inactive) | > 100 µM (inactive) | > 100 µM (inactive) |
| NS(=O)(=O)c1ccc(NC(=O)CC(=O)Nc2ccc(S(N)(=O)=O)cc2)cc1 | > 100 µM (inactive) | > 100 µM (inactive) | > 100 µM (inactive) | > 100 µM (inactive) | – | > 100 µM (inactive) | – | > 100 µM (inactive) | > 100 µM (inactive) | > 100 µM (inactive) | > 100 µM (inactive) | – | > 100 µM (inactive) | > 100 µM (inactive) | > 100 µM (inactive) | > 100 µM (inactive) | > 100 µM (inactive) | > 100 µM (inactive) | > 100 µM (inactive) |
